Laboratory results taken from PMC10940318, “Targeted intracellular delivery of dimeric STINGa by two pHLIP peptides for treatment of solid tumors” (Frontiers in Pharmacology, 2024).

Key:
[1] = tested on: THP-1-Blue-ISG cells polarized into M2-type macrophages; experiment: Activation of IFN (IRF-SEAP reporter) in M2-polarized macrophages; format: cell-based, human; details: THP1-Blue-ISG cells polarized by PMA, IL-4/IL-13, 2 h in DMEM without FBS pH 6.9, then 48 h, QUANTI-Blue, absorbance 655 nm, read-out: EC50 of activation of IRF signaling
Experimental: THP-1-Blue™-ISG cells (Invivogen) expressing an interferon (IFN) regulatory factor (IRF)-inducible secreted embryonic alkaline phosphatase (SEAP) reporter construct were used. Cells were maintained in RPMI growth medium supplemented with L-glutamine, sodium pyruvate, 10% fetal bovine serum (FBS), normocin and ciprofloxacin hydrochloride in a humidified atmosphere of 5% CO2 and 95% air at 37°C. Cells were seeded in 96-well plates at a density of 75,000 cells/well. To generate M2 polarized macrophages, cells were treated first with 185 ng/mL phorbol 12-myristate 13-acetate (PMA) for 6 h and then 20 ng/mL of interleukin 4 (IL-4) and 20 ng/mL of interleukin 13 (IL-13) (both from PeproTech) were added for another 16 h of treatment. […] After a 2-h incubation, an equal volume of RPMI supplemented with 20% heat-inactivated FBS was added, and cells were incubated for another 48 h. SEAP activity was accessed using the QUANTI-Blue™ Solution (Invivogen) to evaluate type I interferon protein levels: 150 μL of the colorimetric reagent was added to 50 μL of cell supernatant for 30 min, 37°C, followed by absorption measurement at 655 nm.

[2] = tested on: CT26 murine colorectal cancer tumors; experiment: Treatment of CT26 tumors in mice; format: in vivo, Balb/c mice; details: two IP injections of 300 µM 500 µL on days 1 and 3; CT26 tumors
Experimental: For the treatment of CT26 tumors, 5 × 10^4 CT26 murine colorectal cancer cells (ATCC, CRL-2638) were injected subcutaneously (SQ) in 100 μL of growth medium into the right flank of female Balb/c mice ranging in age from 7 to 9 weeks (Envigo RMS, Inc.). […] The compounds were dissolved in DMSO as a stock solution and transferred to PBS (vehicle). The residual DMSO in the final solution injected into animals was less than 2%. Tumor volume and body weight were measured 3 times per week throughout the study. Measurements of tumors were performed using calipers, and the tumor volume (V) was calculated with the formula: V=0.52∙L∙W^2 where L is the length and W is the width of the measured tumor. Mice were removed from the study and euthanized when the tumor volume was greater than 2,000 mm^3.

[3] = Stability in mouse plasma; details: BALB/c mouse plasma, 200 µM
Experimental: Plasma proteins were precipitated by methanol (1:5 volume ratio of plasma to methanol) and centrifuged for 10 min at […]. The supernatant was collected and analyzed by HPLC using a Zorbax SB-C18 4.6 × 250 mm, 5 μm column with a gradient from 20% to 80% acetonitrile in water containing 0.05% TFA. Chromatograms were recorded at 220 nm, 280 nm and 325 nm.

human STING WT protein = target: T1, human STING WT protein (Homo sapiens, UniProt Q86WV6); experiment: HTRF competitive binding to STING protein (human STING WT binding kit); details: HTRF competitive assay, 6His-tagged human STING WT, d2-labelled ligand, 3 h RT; EC50 in method, IC50 in Fig. S1; read-out: binding affinity to STING protein
T1 construct: purchased Cisbio
T1 sequence (Q86WV6 whole entry): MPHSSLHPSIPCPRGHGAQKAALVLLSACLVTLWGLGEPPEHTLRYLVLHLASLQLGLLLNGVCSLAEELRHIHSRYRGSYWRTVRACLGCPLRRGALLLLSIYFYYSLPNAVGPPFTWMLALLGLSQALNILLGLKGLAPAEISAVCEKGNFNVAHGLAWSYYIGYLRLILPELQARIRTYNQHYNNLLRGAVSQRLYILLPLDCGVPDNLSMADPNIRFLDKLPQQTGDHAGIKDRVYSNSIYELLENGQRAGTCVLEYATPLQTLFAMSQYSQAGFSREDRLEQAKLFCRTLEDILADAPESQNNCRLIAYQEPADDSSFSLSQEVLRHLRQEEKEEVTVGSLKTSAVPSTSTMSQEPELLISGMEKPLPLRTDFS
Experimental: STING WT ligand d2 reagent was premixed with 6His Tb antibodies, and it was added to each well and the plate was incubated for 3 h at RT. Fluorescence intensities at 616 nm and 665 nm excited at […] were recorded on the SpectraMax ID5 plate reader (Molecular Devices). The homogeneous time resolved fluorescence (HTRF) ratio was calculated to establish the binding of each agent to the STING protein and to calculate EC50.

[4] = Stability in human plasma; format: in vitro ADME; details: single donor human plasma, 200 µM, 0-24 h at 37°C, methanol precipitation, HPLC C18, UV 220/280/325 nm
Experimental: Plasma proteins were precipitated by methanol (1:5 volume ratio of plasma to methanol) and centrifuged for 10 min at 13.4 rpm. The supernatant was collected and analyzed by HPLC using a Zorbax SB-C18 4.6 × 250 mm, 5 μm column with a gradient from 20% to 80% acetonitrile in water containing 0.05% TFA. Chromatograms were recorded at 220 nm, 280 nm and 325 nm.

[5] = Self-immolation kinetics of the S-S linker and payload release after DTT, by HPLC; format: physicochemical; details: DTT in 50 mM phosphate buffer, 150 mM NaCl, pH 7.4; HPLC at 0.5-48 h, UV 220/280/325 nm
Experimental: Figure S3. Kinetics of self-immolation of 2pHLIP-dMSA. […] Starting 2pHLIP-dMSA is shown on A.
Figure S4. Self-immolation kinetics of pHLIP-mMSA. HPLC chromatograms recorded at 280 nm and 325 nm for pHLIP-mMSA treated with DTT dissolved in 50 mM phosphate buffer containing 150 mM NaCl pH 7.4 at different time points ([…]) after addition of DTT (A-G) and the retention time for mMSA (H) and pHLIP (I) are shown. Starting pHLIP-mMSA is shown on A.

CT26 tumor = experiment: Biodistribution and tumor targeting by ex vivo NIR fluorescence imaging; format: in vivo, Balb/c mice; details: single RO injection 50 µM 100 µL; ex vivo fluorescence at 1-120 h
Experimental: For biodistribution studies 5 × 10^4 of CT26 cancer cells were injected SQ in 100 µL of growth medium into the right flank of female Balb/c mice and tumors were grown until they reached 150–250 mm^3 in volume. Then a single retro-orbital (RO) injection of 50 μM 100 μL of 2(ICG-pHLIP)-dMSA was performed. Animals were euthanized at 5 min, 1, 4, 24, 48, 72, and 120 h post-injection, blood was collected in K2 EDTA vacutainer blood collection tubes (BD), and necropsy was performed immediately after animals were euthanized. […]
The in vivo and ex vivo bright field and near-infrared fluorescent imaging employed a Stryker 1588 AIM endoscopic system with L10 AIM Light Source (808 nm excitation and collection of light in the range of approximately of 815–850 nm), and a 1588 AIM Camera using a 10 mm scope. […] The ex vivo fluorescence imaging of tissue specimens was performed using three different laser settings and six different gain settings. The digital fluorescence images were split into RGB channels, with the green channel being analyzed using ImageJ program to calculate the average fluorescence intensity. All average intensities were adjusted based on their capture settings and using calibration curves to present fluorescence intensities corresponding to the unified (the same) settings.

[6] = Blood clearance (PK) by whole blood fluorescence imaging; format: in vivo, Balb/c mice; details: single RO injection of 2(ICG-pHLIP)-dMSA 50 µM 100 µL, CT26 tumor-bearing female Balb/c mice; whole blood fluorescence, exponential fit
Experimental: For biodistribution studies 5 × 10^4 of CT26 cancer cells were injected SQ in 100 µL of growth medium into the right flank of female Balb/c mice and tumors were grown until they reached 150–250 mm^3 in volume. Then a single retro-orbital (RO) injection of 50 μM 100 μL of 2(ICG-pHLIP)-dMSA was performed. Animals were euthanized at 5 min, 1, 4, 24, 48, 72, and 120 h post-injection, blood was collected in K2 EDTA vacutainer blood collection tubes (BD), and necropsy was performed immediately after animals were euthanized. Blood, tumors and major organs (kidney, liver, spleen, pancreas, lung, heart, large and small intestines, bone, muscle, brain) were collected, and imaged ex vivo immediately after necropsy. Blood (200 µL) was imaged in 96-well plates with black bottom and walls.
The in vivo and ex vivo bright field and near-infrared fluorescent imaging employed a Stryker 1588 AIM endoscopic system with L10 AIM Light Source (808 nm excitation and collection of light in the range of approximately of 815–850 nm), and a 1588 AIM Camera using a 10 mm scope. The lens was kept at a fixed distance from the surface of the organs, within an enclosed (light-protected) area. Calibration curves converting laser and gain settings were established by imaging of pHLIP-ICG solution at different concentrations. The ex vivo fluorescence imaging of tissue specimens was performed using three different laser settings and six different gain settings. The digital fluorescence images were split into RGB channels, with the green channel being analyzed using ImageJ program to calculate the average fluorescence intensity. All average intensities were adjusted based on their capture settings and using calibration curves to present fluorescence intensities corresponding to the unified (the same) settings.

COc1cc2cc(C(=O)CCC(=O)O)sc2cc1OC [mMSA, reference compound]
EC50 [1]: 2.2 µM
therapeutic activity on animals (in words) [2]: did not demonstrate any activity
time within which the cargo released from pHLIP underwent degradation in mouse plasma ([3]; 37°C, HPLC C18, UV): ≤ 24 h
IC50 (human STING WT protein): 7.5 µM

ADQDNPWRAYLDLLFPTDTLLLDLLWCG [pHLIP-mMSA]
stability in human plasma (in words) [4]: very high
time to completion of linker self-immolation and release of payload in its original form [5]: ≤ 24 h
stability in mouse plasma (in words) ([3]; 0-24 h at 37°C, methanol precipitation, HPLC C18, UV 220/280/325 nm): low

AKDQDNPWRAYLDLLFPTDTLLLDLLWCG [2(ICG-pHLIP)-dMSA, fluorescent version of 2pHLIP-dMSA with ICG dye on a lysine near the N-terminus of each pHLIP]
accumulation in the tumor (in words) (CT26 tumor): significant accumulation of the agent in the tumor from 1 h and up to 48 h
organ and tissue clearances (in words) (CT26 tumor): slow
blood clearance half-life [6]: 32.2 h
